Measurements: patent publication US20100298141A1, “SUBSTITUTED PYRIDINE N-OXIDE HERBICIDES” (E. I. DU PONT DE NEMOURS AND COMPANY, priority 2007, published 2010)

Tests used:
johnsongrass = test: Test C pre-/postemergence test; format: in vivo, Sorghum halepense
How it was run: (§1)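 Seeds were planted and treated preemergence with test chemical in a non-phytotoxic solvent mixture containing surfactant. Postemergence applications of the same formulation went onto plants 2 to 18 cm tall (1- to 4-leaf stage). A dash marks no test result.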

redroot pigweed = test: Test A pre-/postemergence greenhouse test; format: in vivo, Amaranthus retroflexus; details: for Plant response rating, Pigweed: 0 to 100 scale where 0 is no effect and 100 is complete control; for Pigweed plant response rating: 0 to 100 scale
How it was run: (§2)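 Test compounds in non-phytotoxic solvent with surfactant were applied as a preemergence soil spray to seeded loam/sand pots and, concurrently, postemergence to plants at 2–10 cm, one- to two-leaf stage. About ten days in greenhouse, then injury visually rated against untreated controls.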

Italian ryegrass = test: Test C pre-/postemergence test; format: in vivo, Lolium multiflorum
How it was run: as §1

eastern black nightshade = test: Test C pre-/postemergence test; format: in vivo, Solanum ptycanthum
How it was run: as §1

yellow nutsedge = test: Test C pre-/postemergence test; format: in vivo, Cyperus esculentus
How it was run: as §1

bermudagrass = test: Test C pre-/postemergence test; format: in vivo, Cynodon dactylon
How it was run: as §1

morningglory [1] = test: Test A pre-/postemergence greenhouse test; format: in vivo, Ipomoea spp.; details: for Plant response rating, Morningglory: 0 to 100 scale where 0 is no effect and 100 is complete control; for Morningglory plant response rating: 0 to 100 scale
How it was run: as §2

morningglory [2] = test: Test C pre-/postemergence test; format: in vivo, Ipomoea coccinea
How it was run: as §1

kochia = test: Test C pre-/postemergence test; format: in vivo, Kochia scoparia
How it was run: as §1

wheat = test: Test C pre-/postemergence test; format: in vivo, Triticum aestivum
How it was run: as §1

corn [3] = test: Test A pre-/postemergence greenhouse test; format: in vivo, Zea mays; details: for Plant response rating, Corn: 0 to 100 scale where 0 is no effect and 100 is complete control
How it was run: as §2

cocklebur = test: Test C pre-/postemergence test; format: in vivo, Xanthium strumarium
How it was run: as §1

wild oat = test: Test C pre-/postemergence test; format: in vivo, Avena fatua
How it was run: as §1

rice = test: Test C flooded paddy test; format: in vivo, Oryza sativa; details: Flood
How it was run: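 In-water treatment: compound dosed into 3 cm flood over soil, water level unchanged throughout. Controls run alongside; visual assessment at day 13–15.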

corn [4] = test: Test C pre-/postemergence test; format: in vivo, Zea mays
How it was run: as §1

[5] = system: common (oilseed) sunflower; test: Test C pre-/postemergence test; format: in vivo, Helianthus annuus
How it was run: as §1

giant foxtail = test: Test C pre-/postemergence test; format: in vivo, Setaria faberii
How it was run: as §1

[6] = 62 g ai/ha, Preemergence, scale 0 to 100
[7] = 125 g ai/ha, preemergence, scale 0 (no effect) to 100 (complete control)
[8] = Preemergence, 31 g ai/ha, scale 0 to 100 (0 no effect, 100 complete control)
[9] = preemergence, 250 g ai/ha, scale 0 (no effect) to 100 (complete control)
[10] = Postemergence, 500 g ai/ha, 0 is no effect, 100 is complete control
[11] = Preemergence, 125 g ai/ha, 0 no effect, 100 complete control

For `Cc1cc[n+]([O-])c(S(=O)(=O)Cc2c(C(F)(F)F)nn(C)c2OC(C)C(F)(F)F)c1` (centres unmarked) [Compound 96], which “Johnsongrass plant response rating” value (johnsongrass; [6]) is on record?
The value was 95.

And the “Johnsongrass plant response rating” value (johnsongrass; [7])?
Its value is 100.

And the “Plant response rating, Johnsongrass” value (johnsongrass; [8])?
Its value is 70.

And the “Johnsongrass plant response rating” value (johnsongrass; [9])?
The value was 100.

What about the “Plant response rating, Pigweed” value (redroot pigweed; Postemergence, 125 g ai/ha) of the same compound?
The value was 30.

What about the “Pigweed plant response rating” value (redroot pigweed; [10]) of the same compound?
The value was 80.

And the “Pigweed plant response rating” value (redroot pigweed; [11])?
Its value is 90.

What about the “Plant response rating, Pigweed” value (redroot pigweed; Preemergence, 500 g ai/ha) of the same compound?
The value was 90.

And the “Ryegrass, Italian plant response rating” value (Italian ryegrass; [6])?
Its value is 98.

And the “Ryegrass, Italian plant response rating” value (Italian ryegrass; [7])?
The value was 100.

And the “Plant response rating, Ryegrass, Italian” value (Italian ryegrass; [8])?
The value was 60.

What about the “Ryegrass, Italian plant response rating” value (Italian ryegrass; [9]) of the same compound?
Its value is 100.

And the “Nightshade plant response rating” value (eastern black nightshade; [6])?
Its value is 85.

And the “Nightshade plant response rating” value (eastern black nightshade; [7])?
Its value is 95.

What about the “Plant response rating, Nightshade” value (eastern black nightshade; [8]) of the same compound?
The value was 75.

And the “Nightshade plant response rating” value (eastern black nightshade; [9])?
Its value is 100.

What about the “Nutsedge, Yellow plant response rating” value (yellow nutsedge; [6]) of the same compound?
Its value is 80.

And the “Nutsedge, Yellow plant response rating” value (yellow nutsedge; [7])?
Its value is 95.

And the “Plant response rating, Nutsedge, Yellow” value (yellow nutsedge; [8])?
The value was 40.

And the “Nutsedge, Yellow plant response rating” value (yellow nutsedge; [9])?
Its value is 95.

What about the “Bermudagrass plant response rating” value (bermudagrass; 62 g ai/ha, Preemergence, scale 0 to 100 (0 no effect, 100 complete control)) of the same compound?
Its value is 100.

And the “Bermudagrass plant response rating” value (bermudagrass; [7])?
The value was 100.

What about the “Plant response rating, Bermudagrass” value (bermudagrass; [8]) of the same compound?
The value was 85.

What about the “Bermudagrass plant response rating” value (bermudagrass; [9]) of the same compound?
The value was 100.

What about the “Plant response rating, Morningglory” value (morningglory [1]; Postemergence, 125 g ai/ha) of the same compound?
Its value is 10.

What about the “Morningglory plant response rating” value (morningglory [1]; [10]) of the same compound?
Its value is 70.

And the “Morningglory plant response rating” value (morningglory [1]; [11])?
Its value is 20.

What about the “Plant response rating, Morningglory” value (morningglory [1]; Preemergence, 500 g ai/ha) of the same compound?
Its value is 80.

And the “Morningglory plant response rating” value (morningglory [2]; [6])?
The value was 70.

What about the “Morningglory plant response rating” value (morningglory [2]; [7]) of the same compound?
The value was 95.

And the “Plant response rating, Morningglory” value (morningglory [2]; [8])?
Its value is 0.

What about the “Morningglory plant response rating” value (morningglory [2]; [9]) of the same compound?
Its value is 100.

And the “Kochia plant response rating” value (kochia; [6])?
Its value is 70.

And the “Kochia plant response rating” value (kochia; [7])?
The value was 100.

What about the “Plant response rating, Kochia” value (kochia; [8]) of the same compound?
The value was 0.

What about the “Kochia plant response rating” value (kochia; [9]) of the same compound?
The value was 100.

And the “Wheat plant response rating” value (wheat; [6])?
The value was 0.

What about the “Wheat plant response rating” value (wheat; [7]) of the same compound?
The value was 45.

And the “Plant response rating, Wheat” value (wheat; [8])?
The value was 0.

What about the “Wheat plant response rating” value (wheat; [9]) of the same compound?
The value was 45.

And the “Plant response rating, Corn” value (corn [3]; Postemergence, 125 g ai/ha)?
The value was 20.

And the “Corn plant response rating” value (corn [3]; Preemergence, 125 g ai/ha, 0 to 100 scale, 0 no effect, 100 complete control)?
The value was 0.

What about the “Plant response rating, Corn” value (corn [3]; Preemergence, 500 g ai/ha) of the same compound?
The value was 50.

And the “Cocklebur plant response rating” value (cocklebur; [6])?
Its value is 0.

And the “Cocklebur plant response rating” value (cocklebur; [7])?
Its value is 10.

And the “Plant response rating, Cocklebur” value (cocklebur; [8])?
The value was 0.

What about the “Cocklebur plant response rating” value (cocklebur; [9]) of the same compound?
The value was 40.

And the “Oat, Wild plant response rating” value (wild oat; [6])?
The value was 80.

And the “Oat, Wild plant response rating” value (wild oat; [7])?
Its value is 95.

What about the “Plant response rating, Oat, Wild” value (wild oat; [8]) of the same compound?
The value was 70.

And the “Oat, Wild plant response rating” value (wild oat; [9])?
Its value is 98.

And the “Plant response rating, Rice” value (rice; 62 g ai/ha, scale 0 to 100 (0 no effect, 100 complete control))?
Its value is 0.

And the “Plant response rating, Rice” value (rice; 250 g ai/ha, scale 0 to 100, 0 no effect, 100 complete control, 13 to 15 days)?
Its value is 20.

And the “Corn plant response rating” value (corn [4]; [6])?
The value was 0.

What about the “Corn plant response rating” value (corn [4]; [7]) of the same compound?
Its value is 35.

What about the “Plant response rating, Corn” value (corn [4]; [8]) of the same compound?
The value was 0.

What about the “Corn plant response rating” value (corn [4]; [9]) of the same compound?
The value was 60.

What about the “Sunflower plant response rating” value [5, 6] of the same compound?
The value was 0.

What about the “Sunflower plant response rating” value [5, 7] of the same compound?
Its value is 0.

What about the “Plant response rating, Sunflower” value [5, 8] of the same compound?
The value was 0.

What about the “Sunflower plant response rating” value [5, 9] of the same compound?
Its value is 30.

What about the “Foxtail, Giant plant response rating” value (giant foxtail; [6]) of the same compound?
The value was 80.

What about the “Foxtail, Giant plant response rating” value (giant foxtail; [7]) of the same compound?
Its value is 95.

And the “Plant response rating, Foxtail, Giant” value (giant foxtail; [8])?
The value was 80.

And the “Foxtail, Giant plant response rating” value (giant foxtail; [9])?
Its value is 98.
